12 compounds from patent publication US6887896B1, “7-[(7-Alkoxy)-chrom-3-en-6-yl]-heptatrienoic acid and 7-[(3-alkoxy)-5,6-dihydronaphthalen-2-yl]-heptatrienoic acid derivatives having serum glucose reducing activity” (Allergan, Inc., priority 2003, dated 2005) can be followed below.

In general, pEC50 refers to −log10 of the EC50, conventionally taken in molar units. In general, pKi refers to the Ki on a negative log10 scale, so that one unit is a factor of ten. The pKd is −log10 of the Kd, conventionally taken in molar units.

Structures are written as SMILES. pEC50, pKd, pKi: −log10 of the molar value. Some results are limits rather than exact numbers.

Test [1] deals with T1, RXRβ (UniProt P28704).
T1 sequence (P28704 1-520): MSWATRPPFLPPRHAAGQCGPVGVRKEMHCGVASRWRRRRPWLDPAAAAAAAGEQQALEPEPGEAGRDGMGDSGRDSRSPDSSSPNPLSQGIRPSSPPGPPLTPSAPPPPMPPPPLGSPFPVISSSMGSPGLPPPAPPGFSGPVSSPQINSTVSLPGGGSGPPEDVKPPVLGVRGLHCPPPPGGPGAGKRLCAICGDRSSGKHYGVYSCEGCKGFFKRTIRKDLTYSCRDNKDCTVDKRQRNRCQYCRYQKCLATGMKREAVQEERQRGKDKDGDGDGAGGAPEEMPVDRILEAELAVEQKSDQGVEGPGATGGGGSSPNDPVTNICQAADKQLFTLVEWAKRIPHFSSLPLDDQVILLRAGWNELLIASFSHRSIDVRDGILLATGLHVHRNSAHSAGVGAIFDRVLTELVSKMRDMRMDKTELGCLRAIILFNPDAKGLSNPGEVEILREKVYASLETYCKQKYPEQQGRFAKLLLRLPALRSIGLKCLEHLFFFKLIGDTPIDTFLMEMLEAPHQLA
Nature of the test: holoreceptor transactivation assay, RXRβ. The class given is cell-based. The note with it: for pEC50: holoreceptor transactivation, read-out: RXR Trans. EC50 β; for RXR Trans. efficacy (number in parentheses) β: percentage compared to the standard compound. From the text: (§1) Specifically, one such assay is a chimeric receptor transactivation assay which tests for agonist-like activity in the R RAPE and RAR7 receptor subtypes, and which is based on work published by Feigner, P. L. and Holm, M (1989) Focus, 112 is described in detail in U.S. Pat. No. 5,455,265. The specification of U.S. Pat. No. 5,455,265 is hereby expressly incorporated by reference. A holoreceptor transactivation assay and a ligand binding assay which measure the antagonist/agonist like activity of the compounds of the invention, or their ability to bind to the several retinoid receptor subtypes, respectively, are described in published PCT Application No. WO WO93/11755 (particularly on pages 30-33 and 37-41) published on Jun. 24, 1993, the specification of which is also incorporated herein by reference. A detailed experimental procedure for holoreceptor transactivations has been described by Heyman et al. Cell 68, 397-406, (1992); Allegretto et al. J. Biol. Chem. 268, 26625-26633, and Mangelsdorf et al. The Retinoids: Biology, Chemistry and Medicine, pp 319-349, Raven Press Ltd., New York, which are expressly incorporated herein by reference. The results obtained in this assay are expressed in EC50 numbers, as they are also in the chimeric receptor transactivation assay. The results of the ligand binding assay are expressed in Ki numbers. (See Cheng et al. Biochemical Pharmacology Vol. 22 pp 3099-3108, expressly incorporated herein by reference.)
(§2) Efficacy in a transactivation assay is expressed as a percentage of the maximum potency attained by the compound compared to a standard which, in this case, is the compound named (2E,4E,1′S,2′S)-3-methyl-5-[2′-methyl-2′-(5,5,8,8-tetramethyl-5,6,7,8-tetrahydro-naphthalen-2-yl)-cyclopropyl]-penta-2,4-dienoic acid. This standard compound is described in U.S. Pat. No. 6,114,533.
(§3) The specification of this application for patent is organized in several sections in accordance with structural Formulas A through F each of which discloses a group of preferred compounds within the scope of the invention. Tables that disclose the activity of certain exemplary compounds of the invention in the above-described RXR receptor transactivation and binding assays are found in the corresponding sections. […] The transactivation data pertaining to the activation of RXR receptors were obtained in the holoreceptor assay.
(§4) Generally speaking, in the tables disclosing the results of transactivation and binding assays the numbers in parentheses indicate efficacy as a percentage compared to the standard compound, (2E,4E,1′S,2′S)-3-methyl-5-[2′-methyl-2′-(5,5,8,8-tetramethyl-5,6,7,8-tetrahydro-naphthalen-2-yl)cyclopropyl]-penta-2,4-dienoic acid and the other numbers indicate the measured EC50 and K; in nanomolar concentration.

Test [2] concerns the target T2, RARβ (Homo sapiens, UniProt P10826).
T2 sequence (P10826 1-455): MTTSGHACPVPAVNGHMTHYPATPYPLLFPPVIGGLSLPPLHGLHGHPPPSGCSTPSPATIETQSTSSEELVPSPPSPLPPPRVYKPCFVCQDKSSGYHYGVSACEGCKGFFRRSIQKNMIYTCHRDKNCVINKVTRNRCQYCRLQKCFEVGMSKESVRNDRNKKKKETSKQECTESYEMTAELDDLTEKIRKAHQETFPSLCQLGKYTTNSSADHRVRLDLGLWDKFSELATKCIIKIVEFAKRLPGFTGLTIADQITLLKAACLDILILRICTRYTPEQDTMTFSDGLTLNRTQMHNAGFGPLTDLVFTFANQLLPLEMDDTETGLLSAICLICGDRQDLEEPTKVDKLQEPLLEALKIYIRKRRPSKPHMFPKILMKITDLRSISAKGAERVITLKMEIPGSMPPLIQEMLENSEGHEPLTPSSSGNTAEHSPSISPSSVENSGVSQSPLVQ
Nature of the test: ligand binding assay, RARβ. The note with it: for pKi: read-out: RAR Bind. Ki β; for pKd: Table 9 (Formula F), read-out: RAR β Kd.
Text: as §1, §4

The next test has as its target T3, RARγ (Homo sapiens, UniProt P13631).
T3 sequence (P13631 1-454): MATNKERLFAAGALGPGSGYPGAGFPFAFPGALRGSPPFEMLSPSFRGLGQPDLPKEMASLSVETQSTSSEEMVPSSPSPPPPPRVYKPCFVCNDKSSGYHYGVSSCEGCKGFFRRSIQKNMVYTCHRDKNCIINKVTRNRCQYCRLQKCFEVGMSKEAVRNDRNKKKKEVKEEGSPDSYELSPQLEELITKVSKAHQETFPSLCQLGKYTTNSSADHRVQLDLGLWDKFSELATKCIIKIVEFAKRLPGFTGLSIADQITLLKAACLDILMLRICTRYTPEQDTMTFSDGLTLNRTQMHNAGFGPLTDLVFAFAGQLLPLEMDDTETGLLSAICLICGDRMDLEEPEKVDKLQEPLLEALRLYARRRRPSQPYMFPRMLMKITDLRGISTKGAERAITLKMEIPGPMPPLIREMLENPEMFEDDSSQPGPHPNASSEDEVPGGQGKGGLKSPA
The experiment in a line: ligand binding assay, RARγ. The note with it: for pKi: read-out: RAR Bind. Ki γ; for pKd: Table 9 (Formula F), read-out: RAR γ Kd.
Text: as §1, §4

Test [3] concerns the target T1, RXRβ. Nature of the test: ligand binding assay, RXRβ. The settings on record: for pKi: read-out: RXR Bind Ki β; for pKd: Table 9 (Formula F), read-out: RXR β Kd.
Text: as §1, §4

Test [4] addresses T4, RARβ (Homo sapiens, UniProt P10826).
T4 sequence (P10826 183-417 limits assumed): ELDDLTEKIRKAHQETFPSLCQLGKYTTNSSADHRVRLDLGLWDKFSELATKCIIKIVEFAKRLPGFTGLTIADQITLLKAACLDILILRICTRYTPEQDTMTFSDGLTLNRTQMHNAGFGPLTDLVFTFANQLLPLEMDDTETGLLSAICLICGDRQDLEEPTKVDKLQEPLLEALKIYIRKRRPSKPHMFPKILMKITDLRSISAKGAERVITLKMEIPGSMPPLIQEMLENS
The experiment in a line: chimeric receptor transactivation assay, RARβ. The format is cell-based.
Text: as §1, §2, §3, §4

Regarding `CCOc1c(\C(CC)=C(F)/C=C/C(C)=C/C(=O)O)cc2c(c1Cl)OC(C)(C)C=C2C(C)C` [Compound 173], the pEC50 at RXRβ [1] was 7.74. Besides, on RXRβ [1], the “RXR Trans. efficacy (number in parentheses) β” value (“RXR Trans. efficacy” below) amounted to 21%. For the same compound, the pKi at RARβ [2] is 6.37; on RARγ it was 5.62; on RXRβ [3], 7.44.
On to `CCOc1c(\C(C)=C(F)/C=C/C(C)=C/C(=O)O)cc2c(c1Br)C(C)(C)CC=C2C(C)C` [Compound A-169, (2E,4E,6E)-7-(4-Bromo-3-ethoxy-8-isopropyl-5,5-dimethyl-5,6-dihydro-naphthalen-2-yl)-6-fluoro-3-methyl-octa-2.4,6-trienoic acid], for which the pEC50 on RXRβ [1] was 8.66. The “RXR Trans. efficacy” value on RXRβ [1] is given as 68%. For the same compound, the pKd on RARβ [2] is 6.60; on RARγ, 6.00; at RXRβ [3], 7.80.
Take `CCOc1c(\C(C)=C(F)/C=C/C(C)=C/C(=O)O)cc2c(c1Cl)C(C)(C)CC=C2C(C)C` [Compound A-177, (2E,4E,6E)-7-(4-Chloro-3-ethoxy-8-isopropyl-5,5-dimethyl-5,6-dihydronaphthalen-2-yl)6-fluoro-3-methyl-octa-2,4,6-trienoic acid]: the pEC50 on RXRβ [1] was 9.30. Also, the “RXR Trans. efficacy” value on RXRβ [1] is 66%. Besides, the pKd was 6.35 at RARβ [2], 5.92 at RARγ and 7.92 at RXRβ [3].
With `CCOc1c(\C(=C/C=C/C(C)=C/C(=O)O)CC)cc2c(c1Cl)OC(C)(C)C=C2C(C)C` [Compound 51], the pEC50 at RXRβ [1] was 7.06. Further, on RXRβ [1], the “RXR Trans. efficacy” value stood at 26%. The pKi on RARβ [2] is 5.85; on RARγ it was 5.31; on RXRβ [3], 6.95.
In the case of `CCOc1cc2c(cc1\C(C)=C(F)/C=C/C(C)=C/C(=O)O)C(C(C)C)=CCC2(C)C` [Compound A-79, (2E,4E,6E)-6-Fluoro-3-(4,4-dimethylethoxy-1-isopropyl-3,4-dihydronaphthalen-7-yl)-3-methyl-2.4,6-octa-trienoic acid], the pEC50 at RARβ [4] (chimeric receptor transactivation, read-out: RAR Trans. EC50 β) is 6.08; on RXRβ [1], 8.40. For the same compound, at RARβ [4] (percentage compared to the standard compound, read-out: RAR Trans. efficacy (number in parentheses) β), the Emax turned out to be 62%. Moreover, the “RXR Trans. efficacy” value at RXRβ [1] was found to be 60%. Moreover, the pKi at RARγ is 5.46; on RXRβ [3], 7.89.
Turning to `CCOc1cc2c(cc1\C(C)=C(F)/C=C/C(C)=C/C(=O)O)C(CC)=CC(C)(C)O2` [Compound 123, 7-(7-Ethoxy-4-ethyl-2,2-dimethyl-2H-chromen-6-yl)-6-fluoro-3-methyl-octa-2E,4E,6E-trienoic acid], the pKi at RARβ [2], at RARγ and at RXRβ [3] was < 5.00 throughout.
Consider `CCOc1c(\C(C)=C(F)/C=C/C(C)=C/C(=O)O)cc2c(c1Br)C(C)(C)CC=C2C(C)(C)C` [Compound A-174, (2E,4E,6E)-7-(4-Bromo-8-tert-butyl-3-ethoxy-5,5-dimethyl-5,6-dihydro-naphthalen-2-yl)-6-fluoro-3-methyl-octa-2,4,6-trienoic acid], for which the pEC50 at RXRβ [1] is 8.15. For the same compound, on RXRβ [1], the “RXR Trans. efficacy” value was determined as 25%. The results for the negative logarithm of the Kd (pKd) at RARβ [2], on RARγ and at RXRβ [3] were 6.29, 5.80 and 7.92, respectively.
`COc1cc2c(cc1\C(C)=C(F)/C=C/C(C)=C/C(=O)O)C(C(C)(C)C)=CC(C)(C)O2` [Compound 122, 7-(4-tert-Butyl-7-methoxy-2,2-dimethyl-2H-chromen-6-yl)-6-fluoro-3-methyl-octa-2E,4E,6E-trienoic acid]: the pEC50 on RXRβ [1] is 7.46. Further, the “RXR Trans. efficacy” value on RXRβ [1] is reported as 61%. For the same compound, the pKi on RARβ [2] was 5.85; on RARγ, 5.41; on RXRβ [3], 6.96.
In the case of `COc1c(\C(C)=C(F)/C=C/C(C)=C/C(=O)O)cc2c(c1Cl)OC(C)(C)C=C2C(C)C` [Compound 170, 7-(8-Chloro-4-isopropyl-7-methoxy-2,2-dimethyl-2H-chromen-6-yl)-6-fluoro-3-methyl-octa-2E,4E,6E-trienoic acid], at RXRβ [1], the pEC50 was 9.10. The “RXR Trans. efficacy” value at RXRβ [1] came to 88%. Moreover, the pKi on RARβ [2] is 5.64; at RARγ, 5.28; at RXRβ [3], 8.15.
With `CCOc1c(\C(C)=C/C=C/C(C)=C/C(=O)O)cc2c(c1Cl)OC(C)(C)C=C2C(C)C` [Compound 50, 7-(8-Chloro-4-isopropyl-7-ethoxy-2,2-dimethyl-2H-chromen-6-yl)-3-methyl-octa-2E,4E,6Z-trienoic acid], the pEC50 on RXRβ [1] was 7.72. In addition, the “RXR Trans. efficacy” value on RXRβ [1] is given as 57%. Also, the pKi on RARβ [2] is 5.89; at RARγ it was 5.23; on RXRβ [3], 7.12.
Regarding `CC(/C=C/C(F)=C(/C)c1cc2c(c(Cl)c1OC(C)C)OC(C)(C)C=C2C(C)C)=C\C(=O)O` [Compound 174], the pEC50 on RXRβ [1] is 6.28. Besides, on RXRβ [1], the “RXR Trans. efficacy” value is reported as 12%. Besides, the pKi at RARβ [2] is 5.89; on RARγ it was 5.47; at RXRβ [3], 6.50.
For the compound `CCOc1cc2c(cc1\C(CC)=C(F)/C=C/C(C)=C/C(=O)O)C=CCC2(C)C` [Compound A-77], the pEC50 at RXRβ [1] was < 6.00. Also, the pKi at RARβ [2] was 6.43; at RXRβ [3], 7.20.
